Assay [1] concerns the target GST-tagged truncated LRRK2 (Homo sapiens (Human), UniProt Q5S007). In words: LRRK2 Lantha Screen kinase assay. Format: biochemical. The note with it: geometric mean of 2-5 determinations unless otherwise indicated (a: >=6 determinations; b: single determination); read-out: LRRK2 WT IC50.
In the next assay the target is mutant G2019S LRRK2 (Homo sapiens (Human), UniProt Q5S007, G2019S). The experiment in a line: LRRK2 Lantha Screen kinase assay, mutant enzyme. It counts as biochemical. Conditions: geometric mean of 2-5 determinations unless otherwise indicated (a: >=6 determinations; b: single determination).
mutant G2019S LRRK2, sequence (Q5S007 970-2527 G2019S): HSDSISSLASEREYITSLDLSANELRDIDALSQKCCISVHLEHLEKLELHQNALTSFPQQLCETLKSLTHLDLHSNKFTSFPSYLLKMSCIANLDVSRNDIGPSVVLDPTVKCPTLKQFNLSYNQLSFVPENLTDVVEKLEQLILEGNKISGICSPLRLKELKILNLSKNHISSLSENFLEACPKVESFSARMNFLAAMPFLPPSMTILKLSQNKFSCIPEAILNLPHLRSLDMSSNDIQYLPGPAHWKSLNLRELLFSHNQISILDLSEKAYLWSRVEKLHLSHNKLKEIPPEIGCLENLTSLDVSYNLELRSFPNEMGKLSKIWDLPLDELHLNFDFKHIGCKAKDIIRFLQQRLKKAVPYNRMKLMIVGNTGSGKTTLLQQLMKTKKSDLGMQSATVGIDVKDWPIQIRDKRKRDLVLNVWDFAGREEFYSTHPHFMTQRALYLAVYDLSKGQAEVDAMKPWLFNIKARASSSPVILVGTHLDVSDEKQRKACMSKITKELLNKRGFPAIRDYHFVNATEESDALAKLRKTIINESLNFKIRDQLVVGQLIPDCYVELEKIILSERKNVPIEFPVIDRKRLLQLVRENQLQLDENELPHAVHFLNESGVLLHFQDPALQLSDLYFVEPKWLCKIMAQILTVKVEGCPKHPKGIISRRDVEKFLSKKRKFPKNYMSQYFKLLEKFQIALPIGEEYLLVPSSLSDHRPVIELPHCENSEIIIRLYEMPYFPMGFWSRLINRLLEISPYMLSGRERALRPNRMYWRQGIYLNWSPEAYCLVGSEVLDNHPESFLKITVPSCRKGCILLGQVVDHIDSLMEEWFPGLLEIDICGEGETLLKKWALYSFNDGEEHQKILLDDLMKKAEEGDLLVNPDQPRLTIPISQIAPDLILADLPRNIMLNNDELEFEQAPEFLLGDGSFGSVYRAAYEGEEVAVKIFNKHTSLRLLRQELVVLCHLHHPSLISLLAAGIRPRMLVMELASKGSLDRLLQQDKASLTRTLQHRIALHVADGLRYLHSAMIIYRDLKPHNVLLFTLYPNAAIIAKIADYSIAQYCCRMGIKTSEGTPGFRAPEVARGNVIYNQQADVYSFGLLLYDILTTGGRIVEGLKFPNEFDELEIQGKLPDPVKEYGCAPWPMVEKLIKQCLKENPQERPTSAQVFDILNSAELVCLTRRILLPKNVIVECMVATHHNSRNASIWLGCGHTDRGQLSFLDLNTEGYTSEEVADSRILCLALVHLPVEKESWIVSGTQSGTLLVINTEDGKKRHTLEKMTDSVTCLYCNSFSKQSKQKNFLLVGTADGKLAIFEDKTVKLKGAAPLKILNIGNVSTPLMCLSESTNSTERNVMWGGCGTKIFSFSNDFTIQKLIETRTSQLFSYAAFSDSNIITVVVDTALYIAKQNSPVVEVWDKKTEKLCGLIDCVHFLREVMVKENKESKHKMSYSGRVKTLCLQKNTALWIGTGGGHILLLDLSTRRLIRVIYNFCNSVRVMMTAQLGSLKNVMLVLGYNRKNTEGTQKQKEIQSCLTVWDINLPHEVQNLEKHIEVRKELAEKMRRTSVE

GST-tagged truncated LRRK2, sequence (Q5S007 970-2527): as the sequence (Q5S007 970-2527 G2019S) above, with S1050G counted along it

As a reminder, the IC50 is the concentration at which inhibition is half-maximal. In the case of `N#Cc1cccc(-c2c[nH]c3ncnc(N4CCC[C@@H](O)C4)c23)c1` [Example 155, 3-{4-[(3R)-3-hydroxypiperidin-1-yl]-7H-pyrrolo[2,3-d]pyrimidin-5-yl}benzonitrile], the IC50 in assay [1] was determined as 0.008 µM; against mutant G2019S LRRK2, 0.037 µM.
Consider `OC1CCCN(c2ncnc3[nH]cc(-c4cccc(F)c4)c23)C1` (stereo not shown) [Example 156, 1-[5-(3-fluorophenyl)-7H-pyrrolo[2,3-d]pyrimidin-4-yl]piperidin-3-ol], for which the IC50 in assay [1] turned out to be 0.057 µM; against mutant G2019S LRRK2, 0.086 µM.
`COc1ccc(F)cc1-c1c[nH]c2ncnc(N3CCOC(c4noc(C)n4)C3)c12` (stereo not shown) [Example 157, 5-(5-fluoro-2-methoxyphenyl)-4-[2-(5-methyl-1,2,4-oxadiazol-3-yl)morpholin-4-yl]-7H-pyrrolo[2,3-d]pyrimidine]: the IC50 amounted to 0.044 µM in assay [1] and 0.046 µM at mutant G2019S LRRK2.
For the compound `N#Cc1cccc(-c2c[nH]c3ncnc(N4CCC(F)CC4)c23)c1F` [Example 158, 2-fluoro-3-[4-(4-fluoropiperidin-1-yl)-7H-pyrrolo[2,3-d]pyrimidin-5-yl]benzonitrile], the IC50 in assay [1] was found to be 0.018 µM; against mutant G2019S LRRK2 it was 0.086 µM.
For `COc1ccccc1-c1c[nH]c2ncnc(N3CCC(F)CC3)c12` [Example 159, 4-(4-fluoropiperidin-1-yl)-5-(2-methoxyphenyl)-7H-pyrrolo[2,3-d]pyrimidine], the IC50 in assay [1] turned out to be 0.067 µM; against mutant G2019S LRRK2 it was 0.074 µM.
For `COc1cc(F)cc(-c2c[nH]c3ncnc(N4CCC(F)CC4)c23)c1` [Example 160, 5-(3-fluoro-5-methoxyphenyl)-4-(4-fluoropiperidin-1-yl)-7H-pyrrolo[2,3-d]pyrimidine] the same measures were 0.084 µM and 0.096 µM.
For `Cc1cncc(-c2c[nH]c3ncnc(N4CCCC(O)C4)c23)c1` (stereo not shown) [Example 162, 1-[5-(5-methylpyridin-3-yl)-7H-pyrrolo[2,3-d]pyrimidin-4-yl]piperidin-3-ol], the IC50 in assay [1] was found to be 0.036 µM; against mutant G2019S LRRK2, 0.067 µM.
Take `COc1ccc(F)cc1-c1c[nH]c2ncnc(N3CCC(F)CC3)c12` [Example 163, 5-(5-fluoro-2-methoxyphenyl)-4-(4-fluoropiperidin-1-yl)-7H-pyrrolo[2,3-d]pyrimidine]: the IC50 was found to be 0.025 µM in assay [1] and 0.029 µM against mutant G2019S LRRK2.
`COc1cc(F)cc(-c2c[nH]c3ncnc(N4CCCC(O)C4)c23)c1` (stereo not shown) [Example 164, 1-[5-(3-fluoro-5-methoxyphenyl)-7H-pyrrolo[2,3-d]pyrimidin-4-yl]piperidin-3-ol]: the IC50 in assay [1] was determined as 0.029 µM; on mutant G2019S LRRK2, 0.038 µM.
As for `COc1ccccc1-c1c[nH]c2ncnc(N3CCCC(O)C3)c12` (stereo not shown) [Example 165, 1-[5-(2-methoxyphenyl)-7H-pyrrolo[2,3-d]pyrimidin-4-yl]piperidin-3-ol], the IC50 worked out at 0.058 µM in assay [1] and 0.062 µM against mutant G2019S LRRK2.
Regarding `Cc1noc(C2CN(c3ncnc4[nH]cc(-c5cccc(C#N)c5F)c34)CCO2)n1` (stereo not shown) [Example 166, 2-fluoro-3-{4-[2-(3-methyl-1,2,4-oxadiazol-5-yl)morpholin-4-yl]-7H-pyrrolo[2,3-d]pyrimidin-5-yl}benzonitrile], the IC50 stood at 0.038 µM in assay [1] and 0.272 µM at mutant G2019S LRRK2.
For `COCC1CN(c2ncnc3[nH]cc(-c4cccc(C#N)c4F)c23)CCO1` (stereo not shown) [Example 167, 2-fluoro-3-{4-[2-(methoxymethyl)morpholin-4-yl]-7H-pyrrolo[2,3-d]pyrimidin-5-yl}benzonitrile] the same measures were 0.061 µM and 0.372 µM.
In the case of `COc1ccc(F)cc1-c1c[nH]c2ncnc(N3CCC3)c12` [Example 168, 4-(azetidin-1-yl)-5-(5-fluoro-2-methoxyphenyl)-7H-pyrrolo[2,3-d]pyrimidine], the IC50 in assay [1] came out at 0.085 µM; against mutant G2019S LRRK2, 0.075 µM.
Regarding `Cc1cncc(-c2c[nH]c3ncnc(N4CCO[C@@H](C)C4)c23)c1` [Example 169, 4-[(2S)-2-methylmorpholin-4-yl]-5-(5-methylpyridin-3-yl)-7H-pyrrolo[2,3-d]pyrimidin], the IC50 in assay [1] worked out at 0.099 µM; on mutant G2019S LRRK2, 0.28 µM.
The matching figures for `COc1ccccc1-c1c[nH]c2ncnc(N(C)C)c12` [Example 173, 5-(2-methoxyphenyl)-N,N-dimethyl-7H-pyrrolo[2,3-d]pyrimidin-4-amine]: 0.043 µM and 0.029 µM.
For `COc1ccccc1-c1c[nH]c2ncnc(N3CC[C@H](F)C3)c12` [Example 175, 4-[(3S)-3-fluoropyrrolidin-1-yl]-5-(2-methoxyphenyl)-7H-pyrrolo[2,3-d]pyrimidine] the same measures were 0.041 µM and 0.054 µM.
For `COc1ccccc1-c1c[nH]c2ncnc(N3CCCC3)c12` [Example 176, 5-(2-methoxyphenyl)-4-(pyrrolidin-1-yl)-7H-pyrrolo[2,3-d]pyrimidine] the same measures were 0.054 µM and 0.068 µM.
For `COc1cc(F)cc(-c2c[nH]c3ncnc(N(C)C)c23)c1` [Example 177, 5-(3-fluoro-5-methoxyphenyl)-N,N-dimethyl-7H-pyrrolo[2,3-d]pyrimidin-4-amine], the IC50 in assay [1] turned out to be 0.041 µM; against mutant G2019S LRRK2, 0.049 µM.
In the case of `N#Cc1cccc(-c2c[nH]c3ncnc(N4CCCC(O)C4)c23)c1F` (stereo not shown) [Example 178, 2-fluoro-3-[4-(3-hydroxypiperidin-1-yl)-7H-pyrrolo[2,3-d]pyrimidin-5-yl]benzonitrile], the IC50 came to 0.009 µM in assay [1] and 0.042 µM against mutant G2019S LRRK2.
On to `COc1ccc(F)cc1-c1c[nH]c2ncnc(N3CCO[C@@H](C)C3)c12` [Example 179, 5-(5-fluoro-2-methoxyphenyl)-4-[(2S)-2-methylmorpholin-4-yl]-7H-pyrrolo[2,3-d]pyrimidine], for which the IC50 in assay [1] is 0.019 µM; against mutant G2019S LRRK2, 0.03 µM.
With `C[C@H]1CN(c2ncnc3[nH]cc(-c4cccc(C#N)c4F)c23)CCO1` [Example 180, 2-fluoro-3-{4-[(2S)-2-methylmorpholin-4-yl]-7H-pyrrolo[2,3-d]pyrimidin-5-yl}benzonitrile], the IC50 was found to be 0.01 µM in assay [1] and 0.062 µM against mutant G2019S LRRK2.
On to `COc1ccc(F)cc1-c1c[nH]c2ncnc(N3CCCC(F)C3)c12` (stereo not shown) [Example 181, 5-(5-fluoro-2-methoxyphenyl)-4-(3-fluoropiperidin-1-yl)-7H-pyrrolo[2,3-d]pyrimidine], for which the IC50 in assay [1] was found to be 0.022 µM; on mutant G2019S LRRK2 it was 0.024 µM.
For `C[C@H]1CN(c2ncnc3[nH]cc(-c4cccc(F)c4)c23)CCO1` [Example 182, 5-(3-fluorophenyl)-4-[(2S)-2-methylmorpholin-4-yl]-7H-pyrrolo[2,3-d]pyrimidine], the results for the IC50 (in assay [1]; against mutant G2019S LRRK2) were 0.038 µM and 0.082 µM, respectively.
As for `COc1ccc(F)cc1-c1c[nH]c2ncnc(N(C)C)c12` [Example 183, 5-(5-fluoro-2-methoxyphenyl)-N,N-dimethyl-7H-pyrrolo[2,3-d]pyrimidin-4-amine], the concentration for half-maximal inhibition (IC50) in assay [1] worked out at 0.013 µM; against mutant G2019S LRRK2, 0.011 µM.
Regarding `N#Cc1cccc(-c2c[nH]c3ncnc(N4CCCC4)c23)c1F` [Example 184, 2-fluoro-3-[4-(pyrrolidin-1-yl)-7H-pyrrolo[2,3-d]pyrimidin-5-yl]benzonitrile], the IC50 in assay [1] worked out at 0.015 µM; on mutant G2019S LRRK2, 0.082 µM.
Regarding `COc1ccc(F)cc1-c1c[nH]c2ncnc(N3CC[C@H](F)C3)c12` [Example 185, 5-(5-fluoro-2-methoxyphenyl)-4-[(3S)-3-fluoropyrrolidin-1-yl]-7H-pyrrolo[2,3-d]pyrimidine], the IC50 in assay [1] turned out to be 0.015 µM; on mutant G2019S LRRK2 it was 0.023 µM.
The matching figures for `Cc1nc(C2CN(c3ncnc4[nH]cc(-c5cccc(C#N)c5F)c34)CCO2)no1` (stereo not shown) [Example 186, 2-fluoro-3-{4-[2-(5-methyl-1,2,4-oxadiazol-3-yl)morpholin-4-yl]-7H-pyrrolo[2,3-d]pyrimidin-5-yl}benzonitrile]: 0.017 µM and 0.09 µM.
As to `Cc1ccnc(-c2c[nH]c3ncnc(N4CCOCC4)c23)c1` [Example 188, 5-(4-methylpyridin-2-yl)-4-(morpholin-4-yl)-7H-pyrrolo[2,3-d]pyrimidine], the IC50 was 0.043 µM in assay [1] and 0.09 µM on mutant G2019S LRRK2.
For the compound `COc1cccc(F)c1-c1c[nH]c2ncnc(N(C)C)c12` [Example 189, 5-(2-fluoro-6-methoxyphenyl)-N,N-dimethyl-7H-pyrrolo[2,3-d]pyrimidin-4-amine], the IC50 in assay [1] stood at 0.04 µM; against mutant G2019S LRRK2, 0.027 µM.
As to `COc1cccc(F)c1-c1c[nH]c2ncnc(N3CCOCC3)c12` [Example 190, 5-(2-fluoro-6-methoxyphenyl)-4-(morpholin-4-yl)-7H-pyrrolo[2,3-d]pyrimidine], the IC50 turned out to be 0.025 µM in assay [1] and 0.034 µM on mutant G2019S LRRK2.
Consider `Cc1cc(-c2c[nH]c3ncnc(N4CCOCC4)c23)sn1` [Example 192, 5-(3-methyl-1,2-thiazol-5-yl)-4-(morpholin-4-yl)-7H-pyrrolo[2,3-d]pyrimidine], for which the IC50 in assay [1] came to 0.023 µM; on mutant G2019S LRRK2 it was 0.073 µM.
For `COc1ccc(F)c(Cl)c1-c1c[nH]c2ncnc(N3CCOCC3)c12` [Example 193, 5-(2-chloro-3-fluoro-6-methoxyphenyl)-4-(morpholin-4-yl)-7H-pyrrolo[2,3-d]pyrimidin] the same measures were 0.047 µM and 0.051 µM.
With `N#Cc1cccc(-c2c(C(F)F)[nH]c3ncnc(N4CCOCC4)c23)c1` [Example 198, 3-[6-(Difluoromethyl)-4-(morpholin-4-yl)-7H-pyrrolo[2,3-d]pyrimidin-5-yl]benzonitrile], the IC50 came to 0.127 µM in assay [1] and 1.08 µM against mutant G2019S LRRK2.
Turning to `C1=C(c2c[nH]c3ncnc(N4CCOCC4)c23)COCC1` [Example 199, 5-(5,6-Dihydro-2H-pyran-3-yl)-4-(morpholin-4-yl)-7H-pyrrolo[2,3-d]pyrimidine], the results for the IC50 (in assay [1]; at mutant G2019S LRRK2) were 0.0978 µM and 0.351 µM, respectively.
For `C1=C(c2c[nH]c3ncnc(N4CCOCC4)c23)CCCO1` [Example 200, 5-(3,4-Dihydro-2H-pyran-5-yl)-4-(morpholin-4-yl)-7H-pyrrolo[2,3-d]pyrimidine] the same measures were 0.0767 µM and 0.167 µM.

The values are drawn from US9156845B2, “4-(substituted amino)-7H-pyrrolo[2,3-d] pyrimidines as LRRK2 inhibitors” (Pfizer Inc., priority 2012, dated 2015).
